Values quoted from earlier work as cited in US20240100168A1, “LIPID COMPOSITIONS AND METHODS OF PREPARATION THEREOF” (Wake Forest University, priority 2020, published 2024).

Key:
Conditions in all cases: blocks production of pro-inflammatory eicosanoids
COX2 = target: T1, COX2 (Homo sapiens, UniProt P35354)
T1 sequence (P35354 18-604): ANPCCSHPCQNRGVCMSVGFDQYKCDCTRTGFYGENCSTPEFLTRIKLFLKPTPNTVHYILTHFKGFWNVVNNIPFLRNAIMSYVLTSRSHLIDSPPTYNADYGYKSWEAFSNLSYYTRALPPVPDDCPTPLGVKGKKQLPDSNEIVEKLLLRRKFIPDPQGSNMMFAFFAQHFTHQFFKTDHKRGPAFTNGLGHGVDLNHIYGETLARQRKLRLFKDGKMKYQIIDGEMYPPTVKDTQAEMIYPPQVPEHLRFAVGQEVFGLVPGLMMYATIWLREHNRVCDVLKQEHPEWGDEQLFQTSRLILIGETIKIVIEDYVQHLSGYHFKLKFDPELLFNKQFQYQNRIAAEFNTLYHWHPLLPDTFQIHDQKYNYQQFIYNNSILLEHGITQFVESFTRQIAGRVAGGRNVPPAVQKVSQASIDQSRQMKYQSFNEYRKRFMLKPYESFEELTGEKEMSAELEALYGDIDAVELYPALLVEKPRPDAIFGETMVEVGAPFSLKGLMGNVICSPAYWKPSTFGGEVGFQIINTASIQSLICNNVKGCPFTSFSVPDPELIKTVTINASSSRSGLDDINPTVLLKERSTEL

lipoxygenases = system: lipoxygenases
COX1 = COX1 (Homo sapiens, UniProt P23219)
COX1, sequence (P23219 24-599): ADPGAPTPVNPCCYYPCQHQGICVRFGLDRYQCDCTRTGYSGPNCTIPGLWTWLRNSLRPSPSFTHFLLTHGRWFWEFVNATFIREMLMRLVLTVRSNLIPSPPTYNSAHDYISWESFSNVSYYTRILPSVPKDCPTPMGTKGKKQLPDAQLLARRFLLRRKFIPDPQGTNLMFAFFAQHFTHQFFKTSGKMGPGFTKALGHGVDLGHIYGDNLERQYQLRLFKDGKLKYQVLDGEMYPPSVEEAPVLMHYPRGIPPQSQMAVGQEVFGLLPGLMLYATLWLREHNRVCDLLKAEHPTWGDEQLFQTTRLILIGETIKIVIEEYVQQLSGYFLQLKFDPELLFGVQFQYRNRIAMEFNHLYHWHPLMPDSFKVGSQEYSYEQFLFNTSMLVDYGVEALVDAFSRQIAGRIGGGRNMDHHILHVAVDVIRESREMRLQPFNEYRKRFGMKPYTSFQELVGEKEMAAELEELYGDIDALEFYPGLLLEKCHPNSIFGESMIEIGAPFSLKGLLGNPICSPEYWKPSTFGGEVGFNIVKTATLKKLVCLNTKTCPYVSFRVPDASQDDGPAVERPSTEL

CC/C=C\C/C=C\C/C=C\C/C=C\CCCCCCC(=O)O [ETA, 8Z,11Z,14Z,17Z-eicosatetraenoic acid]
dual inhibitor: inhibition of COX2 (COX2) | inhibition of lipoxygenases (lipoxygenases) | inhibition of COX1 (COX1)
